Data from patent publication US8173620B2, “BHQ-caged nucleotide probes photolysable by two-photon excitation” (University of Georgia Research Foundation, Inc., priority 2008, dated 2012).
Where two headings read alike, the source gives them in different places. Marks after values point to notes of the source that are not given here.

Key:
[1] = Two-photon uncaging action cross-section (740 nm, Tsien's method, fluorescein reference); assay type: physicochemical; conditions: for δu (two-photon uncaging action cross-section): KMOPS, pH 7.2, measured at 740 nm; for λa (calculated 2-photon absorbance cross-section): calculated from du = da × Qu
Procedure: BHQ-ATP (159) (100 μM in KMOPS, pH=7.2) was photolyzed with a Chameleon Ultra II laser at 740 nm in 25-μL aliquots. The irradiation time intervals of the pulsed laser were 0, 5, 10, 20, and 40 min. Three samples of each time interval were collected and analyzed by HPLC using the same method as in the one-photon photolysis. Using Tsien's method of determining two-photon uncaging action cross-section with a fluorescence reference solution, the two-photon uncaging action cross-section of BHQ-ATP (159) was measured to be 0.17 GM. The ATP yield was about 40%.
Measurements were carried out in microcuvettes (10×1×1 mm illuminated dimensions) with an effective filling volume of 20 μL (26.10F-Q-10, Starna, Atascadero, Calif.). The IR laser used was from a fs-pulsed and mode-locked Ti:sapphire laser (Mira 900 pumped by a Verdi, Coherent, Santa Clara, Calif. or a Chameleon Ultra II) focused on the center of the cuvette chamber with a 25-mm focal length lens optimized for IR lasers (06LXP003/076, Melles-Griot, Irvine, Calif.). The pulse width of the laser was 144 fs for Mira 900. The laser beam was attenuated by passing the beam through an electro-optical modulator or a ½-waveplate and polarizing beamsplitter cube so that the average power exiting the apparatus was 300-350 mW.
Successive aliquots (25 μL) of each caged compound in KMOPS were placed into the cuvette and irradiated for 0, 5, 10, 20, and 40 min. Each aliquot was analyzed by HPLC to determine the concentration of the remaining caged compound as described for determining the uncaging quantum efficiency for one photon photolysis. The progress curves were plotted, and fitted to a single exponential decay curve. The formation of ATP was monitored, plotted, and fitted to a single exponential rise to max curve. For compounds 1c, 2a, 2b, and 3 (τdark<50 h), a correction was made for background dark hydrolysis that occurred while the irradiated samples were waiting for HPLC analysis. The fraction of the decay from hydrolysis in the dark was calculated using the measured dark hydrolysis rate and the waiting time from the end of the experiment until the HPLC injection. This value was subtracted from the total decay (hydrolysis+photolysis) measured by HPLC.
The two-photon uncaging cross-section (δu) was determined using Tsien's method, (as described by Furuta et al., (1999) Proc. Natl. Acad. Sci. U.S.A. 96: 1193-1200 (incorporated herein by reference in its entirety), referencing to fluorescein, a compound with a known fluorescence quantum yield (Qf=0.9) and absorbance cross-section (δa=30 GM at 740 nm), using the following equation: […]
Np is the number of molecules photolyzed per unit time (molecules/s, determined by HPLC analysis of the reaction); φ is the collection efficiency of the detector (SED033 on an IL-1700, International Light, Newburyport, Mass.) used to measure the fluorescence of fluorescein emitted at a right angle to the beam and passed though a 535/45 nm bandpass filter; CF is the concentration of the fluorescein standard (mol/L); <F(t)> is the time averaged fluorescent photon flux (photons/s) of the fluorescein standard collected by the detector; and CS is the initial concentration of the caged compound (mol/L). The light-induced uncaging of —OAc from a variety of caging moieties is illustrated in FIG. 23.

[2] = Quantum efficiency for one-photon photolysis (365 nm, HPLC); assay type: physicochemical; conditions: KMOPS, pH 7.2; for Qu (one-photon uncaging quantum efficiency): measured at 365 nm; for Sensitivity Qu × e: one-photon excitation, 365 nm, in M^-1·cm^-1
Procedure: The quantum efficiency of BHQ-ATP (159) decay and ATP recovery were determined by photolyzing a KMOPS solution of BHQ-ATP (159) (100 μM) with light from a 365 nm lamp through a set of filters that narrowed the band of light to a tight 30 nm range around 365 nm. Aliquots (20 μL) were taken out from the photolysis cuvette after a time interval of 0, 10, 20, 40, 60, or 90 secs, and HPLC analyses of these samples with a reverse phase C18 column and 85% 25 mM KH2PO4 buffer (pH=6.2)/15% methanol solvent system were carried out. The BHQ-ATP (159) peak (retention time=4.2 min.) and ATP peak (retention time=2.8 min.) were recorded and analyzed.
KMOPS-buffered solutions (3 mL) of the substrates (100 μM) in quartz cuvettes (21-Q-10, Starna, Atascadero, Calif.) were irradiated with 365 nm UV light from a mercury lamp (Spectroline SB-100P; Spectronics, Westbury, N.Y.) with a light filter. The spectral output of the lamp after the glass filters (CSO-52 and CS7-60, Ace Glass, Vineland, N.J.) has a band between 350 nm and 380 nm. The duration of each irradiation period ranged from 5 sec to 60 sec. After each period of irradiation, a 20 μL aliquot of the solution was removed for analysis by HPLC, using an external standard method to determine concentrations.
The analytes were eluted isocratically (flow rate of 1 mL/min) with acetonitrile and water containing 0.1% TFA (Table 1). The only exception is that BHQ-caged ATP was eluted with methanol and 25 mM KH2PO4 buffer (pH=6.2). The progress curves were plotted and fit to a single exponenial decay curve. The uncaging quantum efficiency (Qu) of each chromophore was calculated using Qu=(Iσt90%)^−1, where I is the radiant power in einstein·cm^−2s^−1, σ is the decadic extinction coefficient (10^3×ε, molar extinction coefficient) in cm^−2·mol^−1, and t90% is the irradiation time in s for 90% conversion to product (as described by Adams et al. (J. Am. Chem. Soc. (1988) 110: 3212-3220) incorporated herein by reference in its entirety). The UV intensity of the lamp was measured by potassium ferrioxalate actinometry (as described by Hatchard & Parker (Proc. Roy. Soc. London, Ser. A (1956) 235: 518-536) incorporated herein by reference in its entirety) in the same setup. ATP was monitored for its formation during the process, plotted, and fitted to an exponential rise to max curve.

[3] = UV absorption of quinoline chromophores in KMOPS buffer; assay type: physicochemical; conditions: pH 7.2
Description: It has two absorptive bands beyond 300 nm, one at 320 nm and the other at 370 nm. The 370 nm absorption band arises from the phenolate form of the BHQ skeleton, and the 320 nm absorption band is from the phenol form. […] The λmax of BHQ-ATP (159) is 376 nm, and the extinction coefficient at this wavelength is 1300 M^−1cm^−1. […]

[4] = Dark hydrolysis rate / stability in the dark; assay type: physicochemical; conditions: KMOPS, pH 7.2, dark
Procedure: Substrates were dissolved in KMOPS and stored in the dark at room temperature. Samples for HPLC analysis were carried out periodically and injected as described for one-photon photolysis. Data were fit to single exponential decay curves from which the time constant, τ, was calculated.

[5] = Fluorescence spectra of quinoline chromophores in KMOPS; assay type: physicochemical; conditions: pH 7.2, excitation 365 nm
Procedure: The fluorescence spectra of BHQ-OAc, NHQ-OAc, CyHQ-OAc, CHQ-OAc, DMAQ-OAc, DMAQ-Cl-OAc, and TQ-OAc (15 μM in KMOPS, λex=365 nm) are shown in FIG. 18.

renal Na,K-ATPase = biological target: T1, renal Na,K-ATPase (Homo sapiens, UniProt P05023); conditions: incubated with renal Na,K-ATPase, Kaplan et al. 1978; cited from earlier work
T1 construct: host or cells: kidney (renal) enzyme, as reported by Kaplan et al. 1978

[6] = KMOPS, pH 7.2; value taken from Fedoryak & Dore, Org. Lett. 2002; cited from earlier work
[7] = KMOPS, pH 7.2; 365 nm; value taken from Fedoryak & Dore, Org. Lett. 2002; cited from earlier work
[8] = KMOPS, pH 7.2; value taken from Fedoryak & Dore, Org. Lett. 2002; cited from earlier work; remark: listed apart in the source
[9] = KMOPS, pH 7.2; 740 nm; value taken from Fedoryak & Dore, Org. Lett. 2002; cited from earlier work
[10] = literature value; cited from earlier work
[11] = literature; cited from earlier work

Row | SMILES | δu (two-photon uncaging action cross-section) [1] [GM] | λa (calculated 2-photon absorbance cross-section) [1] [GM] | Qu (one-photon uncaging quantum efficiency) [2] | Sensitivity Qu × e [2] | ε (extinction coefficient at λmax) [3] [M⁻¹ cm⁻¹] | λmax [3] [nm] | τdark (time constant for hydrolysis in the dark) [4] [h] | λem [5] [nm] | other results
1 | CC(=O)OCc1ccc2ccc(N(C)C)cc2n1 [DMAQ-OAc (2a), (7-(Dimethylamino)quinolin-2-yl)methyl acetate] | 0.13 | 2.8 | 0.046 | 211 | 4600 | 368 | 31 | 496 | 
2 | Nc1ncnc2c1ncn2C1OC(COP(=O)(O)OP(=O)(O)OP(=O)(O)OCc2ccccc2[N+](=O)[O-])C(O)C1O (stereo not drawn) [NB-ATP, 2-nitrobenzyl ester of ATP] |  |  |  |  |  |  |  |  | substrate or inhibitor of Na,K-ATPase before irradiation (renal Na,K-ATPase): neither a substrate nor inhibitor of this enzyme
3 | CC(=O)OCc1ccc2ccc(O)c(C#N)c2n1 [CyHQ-OAc (1b), (8-Cyano-7-hydroxyquinolin-2-yl)methyl acetate] | 0.32 | 1.0 | 0.31 | 2387 | 7700 | 364 | 500 | 436 | 
4 | CC(=O)OCc1ccc2ccc(O)c(Cl)c2n1 [CHQ-OAc (1c), (8-Chloro-7-hydroxyquinolin-2-yl)methyl acetate] | 0.12 | 1.2 | 0.10 | 280 | 2800 | 370 | 49 | 492 | 
5 | CC(=O)OCc1ccc2ccc(O)c(Br)c2n1 [BHQ-OAc] |  | 2.0 |  | 754 |  |  |  | 478 | ε [6]: 2600^g M^−1 · cm^−1; λmax [6]: 369^g nm; Qu (one-photon uncaging quantum efficiency) [7]: 0.29^g; τdark (time constant for hydrolysis in the dark) [8]: 71^g h; δu (two-photon uncaging action cross-section) [9]: 0.59^g GM
6 | CN(C)c1ccc2c(COP(=O)(O)OP(=O)(O)OP(=O)(O)OCC3OC(n4cnc5c(N)ncnc54)C(O)C3O)cc(=O)oc2c1 (stereo not drawn) [DMACM-caged ATP, [7-(dimethylamino)coumarin-4-yl]methyl ATP] |  |  |  |  |  |  |  |  | ATP release rate [10]: 1.6e+09 s⁻¹
7 | COc1cc(OC)cc(C(OP(=O)(O)OP(=O)(O)OP(=O)(O)OCC2OC(n3cnc4c(N)ncnc43)C(O)C2O)C(=O)c2ccccc2)c1 (stereo not drawn) [DMB-ATP, P^3-[1-(3,5-dimethoxyphenyl)-2-phenyl-2-oxo]ethyl ester of ATP] |  |  |  |  |  |  |  |  | ATP release rate [10]: > 10^5 sec^−1
8 | COc1cc(C(C)OP(=O)(O)OP(=O)(O)OP(=O)(O)OC[C@H]2O[C@@H](n3cnc4c(N)ncnc43)[C@H](O)[C@@H]2O)c([N+](=O)[O-])cc1OC (stereo partly drawn) [DMNPE-ATP] |  |  |  |  |  |  |  |  | λmax [11]: 350 nm
9 | CC(OP(=O)(O)OP(=O)(O)OP(=O)(O)OCC1OC(n2cnc3c(N)ncnc32)C(O)C1O)c1ccccc1[N+](=O)[O-] (stereo not drawn) [NPE-ATP, P^3-1-(2-nitrophenyl)ethyl ester of ATP] |  |  |  |  |  |  |  |  | ATP release rate [10]: 118 s⁻¹
10 | CC(=O)OCc1cc(Cl)c2ccc(N(C)C)cc2n1 [DMAQ-Cl—OAc (2b), (4-Chloro-7-(dimethylamino)quinolin-2-yl)methyl acetate] | 0.47 | 5.2 | 0.090 | 234 | 3300 | 386 | 34 | 493 | 
11 | CC(=O)OCc1ccc2ccc(O)c([N+](=O)[O-])c2n1 [NHQ-OAc (1a), 7-Hydroxy-8-nitroquinolin-2-yl methyl acetate] | 0.00 |  | 0.00 | 0 | 6500 | 350 | 278 |  | 
